In brackets after ≈: the same amount, converted by molar mass.

The test deals with Propionibacterium acnes. Kind of test: Sensitivity of peroxides versus dibenzoyl peroxide on Propionibacterium acnes: MIC, dilution method in agar medium (CLSI M11A7). It is filed as cell-based. The settings on record: Cutibacterium acnes, 48 h.
[1] abbreviates: P. acnes strain 998, read after 48 hours anaerobic incubation.
[2] abbreviates: P. acnes strain 1044, read after 48 hours anaerobic incubation.
[3] abbreviates: P. acnes strain 1045, read after 48 hours anaerobic incubation.
The mark [4] stands for this setting: P. acnes strain 1201, read after 48 hours anaerobic incubation.
Setting [5] is: P. acnes strain 3069, read after 48 hours anaerobic incubation.
Where [6] appears, read: P. acnes strain CSS 2913, read after 48 hours anaerobic incubation.
The mark [7] stands for this setting: P. acnes strain CSS 2971, read after 48 hours anaerobic incubation.
[8] abbreviates: P. acnes strain CSS 3288, read after 48 hours anaerobic incubation.
Where [9] appears, read: P. acnes strain UAA 2281, read after 48 hours anaerobic incubation.
The mark [10] stands for this setting: P. acnes strain UAA 2285, read after 48 hours anaerobic incubation.

In general, MIC refers to the lowest concentration that inhibits growth of the organism. A high value points to weaker potency. Consider `O=C(OOC(=O)c1ccccc1)c1ccccc1` [Benzoyl peroxide], for which 640 µg/mL (≈ 2640 µM) was the least that counted as inhibitory under setting [1] (MIC); the MIC under setting [2] worked out at 640 µg/mL (≈ 2640 µM); the MIC under setting [3] was determined as 640 µg/mL (≈ 2640 µM); the lowest concentration to inhibit growth under setting [4] (MIC) was 640 µg/mL (≈ 2640 µM); the minimal inhibitory concentration (MIC) under setting [5] came out at 640 µg/mL (≈ 2640 µM); the MIC under setting [6] is 640 µg/mL (≈ 2640 µM). This molecule showed an MIC under setting [7] of 640 µg/mL (≈ 2640 µM), an MIC under setting [8] of 640 µg/mL (≈ 2640 µM), an MIC under setting [9] of 640 µg/mL (≈ 2640 µM) and a minimum inhibitory concentration (MIC) under setting [10] of 640 µg/mL (≈ 2640 µM).

`CCCCCCCC(=O)c1ccc(OC(C)=O)c(C(=O)OOC(=O)c2ccccc2)c1` [Example 1, (2-acetoxy-5-octanoylbenzoyl)benzoyl peroxide] showed an MIC under setting [1] of 1280 µg/mL (≈ 3000 µM); an MIC under setting [2] of 320 µg/mL (≈ 750 µM); a minimal inhibitory concentration (MIC) under setting [3] of 320 µg/mL (≈ 750 µM); an MIC under setting [4] of 320 µg/mL (≈ 750 µM); an MIC under setting [5] of 1280 µg/mL (≈ 3000 µM); an MIC under setting [6] of 320 µg/mL (≈ 750 µM). The molecule also had an MIC under setting [7] of 320 µg/mL (≈ 750 µM), an MIC under setting [8] of 320 µg/mL (≈ 750 µM), an MIC under setting [9] of 320 µg/mL (≈ 750 µM) and an MIC under setting [10] of 320 µg/mL (≈ 750 µM).
